Results taken from patent publication US10647690B2, “2,3-epoxy succinyl derivative, preparation method and use thereof” (Institute of Pharmacology and Toxicology Academy of …, priority 2016, dated 2020).
Read-outs that look alike come from different tables or passages of the source.

Biological target: T1, Cathepsin K (Homo sapiens, UniProt P43235)
T1 construct: purchased Biovision K150-100
T1 sequence (P43235 115-329): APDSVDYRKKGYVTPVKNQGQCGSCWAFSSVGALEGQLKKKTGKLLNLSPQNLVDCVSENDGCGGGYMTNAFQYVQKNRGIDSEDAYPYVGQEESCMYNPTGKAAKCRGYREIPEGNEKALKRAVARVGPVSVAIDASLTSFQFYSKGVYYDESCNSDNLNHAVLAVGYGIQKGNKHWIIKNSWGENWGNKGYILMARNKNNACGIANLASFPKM
Assay: Preliminary screening of Cathepsin K (Cathepsin K Inhibitor Screening Kit K150-100, Biovision)
Format: biochemical
Conditions: relative inhibition rate vs 10 μM FF-FMK control; for inhibition at 1 µM / Inhibition % (1 μM) replicate 1 / Inhibition % (1 μM) replicate 2: 1 μM compound; for inhibition at 10 µM / Inhibition % (10 μM) replicate 1 / Inhibition % (10 μM) replicate 2: 10 μM compound
Description: 1. Method for preliminary screening of Cathepsin K:
Preliminary screening of Cathepsin K was performed by using Cathepsin K Inhibitor Screening Kit (Product No. K150-100) from Biovision Company.
1.1.1 Preparation of Cathepsin K enzyme solution: Cathepsin K enzyme (40 μl) and Cathepsin K reagent (80 μl) were added to Cathepsin K buffer (3.88 ml), and were mixed well, to prepare Cathepsin K enzyme solution with a volume of 4 ml, which was placed on ice for further use.
1.1.2 Preparation of a compound solution: different compounds were separately weighed and dissolved in DMSO (methyl sulfoxide), to prepare solutions at a concentration of 30 mM as stock solutions, and for some insoluble compounds, they were prepared into solutions at a concentration of 10 mM as stock solutions; the 30 mM and 10 mM compound stock solutions were diluted to 1 mM and 100 μM DMSO solutions, respectively; 1 mM and 100 μM compound DMSO solutions (2 μl) were separately added to CTSK buffer (18 μl), to prepare compound solutions at a final concentration of 100 μM and 10 μM, respectively, wherein the concentration of DMSO was 10%.
1.1.3 Preparation of Cathepsin K substrate solution: Cathepsin K substrate (160 μl) was added to Cathepsin K buffer (3.44 ml), and mixed homogeneously, to prepare Cathepsin K substrate solution with a volume of 3.6 ml, which was placed on ice for further use.
1.2 Method for screening Cathepsin K inhibitor: Cathepsin K enzyme solution (prepared in Item 1.1.1) was added to a 384-well plate (ProxiPlate-384 Plus, Perkinelmer) at 10 μl/well, and centrifuged at 1000 rpm for 1 min; the compound solution (prepared in Item 1.1.2) was then added at 2 µl/well, and centrifuged at 1000 rpm for 1 min, and every concentration was repeated in two wells; the plate was placed in a 25° C. incubator for 15 min; Cathepsin K substrate solution was then added at 8 μl/well, and centrifuged at 1000 rpm for 1 min; and finally, the fluorescence signal was read in Enspire, wherein the exciting light was at a wavelength of 400 nm, the emitting light was at a wavelength of 505 nm, and continuous reading was performed at 37° C. for 120 min.
1.3 Data analysis: the slope (S) for all the samples was calculated by ΔRFU (RFU2−RFU1) and time ΔT (T2−T1), including negative control (Enzyme Control, EC) and positive control (Inhibitor Control, IC: 10 μM FF-FMK), and the calculation formula was as followed: Relative inhibition rate %=(SEC−SS)/(SEC−SIC)*100.

[1] = replicate 1, read-out: Inhibition % (1 μM) replicate 1
[2] = replicate 2, read-out: Inhibition % (1 μM) replicate 2
[3] = replicate 1, read-out: Inhibition % (10 μM) replicate 1
[4] = replicate 2, read-out: Inhibition % (10 μM) replicate 2

Compound	inhibition at 1 µM [1] [%]	inhibition at 1 µM [2] [%]	inhibition at 10 µM [3] [%]	inhibition at 10 µM [4] [%]	Inhibition % (1 μM) replicate 1 (replicate 1) [%]	Inhibition % (1 μM) replicate 2 (replicate 2) [%]	Inhibition % (10 μM) replicate 1 (replicate 1) [%]	Inhibition % (10 μM) replicate 2 (replicate 2) [%]
CCOC(=O)[C@H]1O[C@@H]1C(=O)N[C@@H](CCSC)C(=O)NCC(C)(C)C [Compound 30, (2s, 3s)-2-ethoxycarbonyl-3-[2-[(s)-4-methylthio-1-carbonyl-1-(neopentylamino)butane]formylamino]epoxysuccinic acid]	31.6	26.9	29.6	31.7				
CCOC(=O)[C@H]1O[C@@H]1C(=O)N[C@@H](CCSC)C(=O)NC(C)(C)CC [Compound 31, (2s, 3s)-2-ethoxycarbonyl-3-[2-[(s)-4-methylthio-1-carbonyl-1-(tert-pentylamino)butane]formylamino]epoxysuccinic acid]	30.5	36.6	44.1	45.4				
CCOC(=O)[C@H]1O[C@@H]1C(=O)N[C@@H](CSCc1ccccc1)C(=O)N1CCC(c2ccccc2)CC1 [Compound 23, (2s, 3s)-2-ethoxycarbonyl-3-[2-[(s)-3-benzylthio-1-carbonyl-1-(4-phenylpiperidinyl)propane]formylamino]epoxysuccinic acid]	16.1	37.7	70.1	63				
CCOC(=O)[C@H]1O[C@@H]1C(=O)N[C@@H](CSCc1ccccc1)C(=O)NCC(C)(C)C [Compound 15, (2s, 3s)-2-ethoxycarbonyl-3-[2-[(s)-3-benzylthio-1-carbonyl-1-(neopentylamino)propane]formylamino]epoxysuccinic acid]	28.1	35.6	50.1	48.6				
CCOC(=O)[C@H]1O[C@@H]1C(=O)N[C@H](CSCc1ccccc1)C(=O)NCCc1ccc(OC)cc1 [Compound 26, (2s, 3s)-2-ethoxycarbonyl-3-[2-[(s)-3-benzylthio-1-carbonyl-1-(4-methoxyphenylethylamino)propane]formylamino]epoxysuccinic acid]					35.73	44.11	67.87	63.25
CCOC(=O)[C@H]1O[C@@H]1C(=O)N[C@@H](CCSC)C(=O)NCC(C)CC (some centres unmarked) [Compound 3, (2s, 3s)-2-ethoxycarbonyl-3-[2-[(s)-4-methylthio-1-carbonyl-1-(2-methylbutylamino)butane]formylamino]epoxysuccinic acid]	31	16.6	42	36.7				
CCOC(=O)[C@H]1O[C@@H]1C(=O)N[C@@H](CCSC)C(=O)N1CCCC1 [Compound 11, (2s, 3s)-2-ethoxycarbonyl-3-[2-[(s)-4-methylthio-1-carbonyl-1-(tetrahydropyrrolyl)butane]formylamino]epoxysuccinic acid]	15.3	-7.42	32	15.2				
CCOC(=O)[C@H]1O[C@@H]1C(=O)N[C@@H](CCSC)C(=O)NCC(C)C [Compound 9, (2s, 3s)-2-ethoxycarbonyl-3-[2-[(s)-4-methylthio-1-carbonyl-1-(isobutylamino)butane]formylamino]epoxysuccinic acid]	25.6	18.1	29.2	28.8				
CCOC(=O)[C@H]1O[C@@H]1C(=O)N[C@@H](CSCc1ccccc1)C(=O)NCCCCc1ccccc1 [Compound 20, (2s, 3s)-2-ethoxycarbonyl-3-[2-[(s)-3-benzylthio-1-carbonyl-1-(4-phenylbutylamino)propane]formylamino]epoxysuccinic acid]	30.2	37	36.3	50.4				
CCOC(=O)[C@H]1O[C@@H]1C(=O)N[C@@H](CSCc1ccccc1)C(=O)NC(C)(C)CC [Compound 16, (2s, 3s)-2-ethoxycarbonyl-3-[2-[(s)-3-benzylthio-1-carbonyl-1-(tert-pentylamino)propane]formylamino]epoxysuccinic acid]	38.9	39.2	60.8	63.6				
CCOC(=O)[C@H]1O[C@@H]1C(=O)N[C@@H](CSCc1ccccc1)C(=O)NC(C)CC (some centres unmarked) [Compound 19, (2s, 3s)-2-ethoxycarbonyl-3-[2-[(s)-3-benzylthio-1-carbonyl-1-(1-methylpropylamino)propane]formylamino]epoxysuccinic acid]	32	20.4	33.5	27.9				
CCOC(=O)[C@H]1O[C@@H]1C(=O)N[C@@H](CCSC)C(=O)N1CCSC1 [Compound 38, (2s, 3s)-2-ethoxycarbonyl-3-[2-[(s)-4-methylthio-1-carbonyl-1-(tetrahydrothiazolyl)butane]formylamino]epoxysuccinic acid]	36.8	37.9	44.3	41.4				
CCCC(C)NC(=O)[C@H](CCSC)NC(=O)[C@H]1O[C@@H]1C(=O)OCC (some centres unmarked) [Compound 6, (2s, 3s)-2-ethoxycarbonyl-3-[2-[(s)-4-methylthio-1-carbonyl-1-(1-methylbutylamino)butane]formylamino]epoxysuccinic acid]	31.6	36.6	33	39.1				
CCOC(=O)[C@H]1O[C@@H]1C(=O)N[C@@H](CCSC)C(=O)NCCC(C)C [Compound 1, (2s, 3s)-2-ethoxycarbonyl-3-[2-[(s)-4-methylthio-1-carbonyl-1-(isopentylamino)butane]formylamino]epoxysuccinic acid]					17.79	20.59	41.60	47.08
CCCCCCNC(=O)[C@H](CSCc1ccccc1)NC(=O)[C@H]1O[C@@H]1C(=O)OCC [Compound 18, (2s, 3s)-2-ethoxycarbonyl-3-[2-[(s)-3-benzylthio-1-carbonyl-1-(hexylamino)propane]formylamino]epoxysuccinic acid]	23.5	32.7	56.1	48.2				
CCOC(=O)[C@H]1O[C@@H]1C(=O)N[C@@H](CSCc1ccccc1)C(=O)NCCc1ccc(C)cc1 [Compound 21, (2s, 3s)-2-ethoxycarbonyl-3-[2-[(s)-3-benzylthio-1-carbonyl-1-(p-methylphenylethylamino)propane]formylamino]epoxysuccinic acid]	33.1	29.9	67.2	53				
CCOC(=O)[C@H]1O[C@@H]1C(=O)N[C@@H](CCSC)C(=O)N1CCOCC1 [Compound 12, (2s, 3s)-2-ethoxycarbonyl-3-[2-[(s)-4-methylthio-1-carbonyl-1-(morpholinyl)butane]formylamino]epoxysuccinic id]	15.4	26.6	44	51.7				
